Laboratory results published in patent publication US20240391862A1, “(1,4,5-TRISUBSTITUTED-1H-PYRAZOL-3-YL)OXY-2-ALKOXY ALKYL ACIDS AND THEIR DERIVATIVES, THEIR SALTS AND THEIR USE AS HERBICIDAL AGENTS” (Bayer AKtiengesellschaft, priority 2021, published 2024).

How the values were obtained:
KCHSC = experiment: Post-emergence herbicidal effect, greenhouse pot test; format: in vivo
Description: (§1) Seeds of monocotyledonous and dicotyledonous weeds and crop plants are placed in sandy loam in plastic or organic planting pots, covered with soil and cultivated in a greenhouse under controlled growth conditions. 2 to 3 weeks after sowing, the trial plants are treated at the one-leaf stage. The compounds of the invention, formulated in the form of wettable powders (WP) or as emulsion concentrates (EC), are then sprayed onto the green parts of the plants as aqueous suspension or emulsion with addition of 0.5% additive at a water application rate of 600 l/ha (converted). After the test plants have been kept in the greenhouse under optimum growth conditions for about 3 weeks, the activity of the preparations is rated visually in comparison to untreated controls. For example, 100% activity=the plants have died, 0% activity=like control plants. Tables 20a to 38c below show the effects/crop compatibilities of selected compounds of the general formula (I) on various harmful plants at an application rate corresponding to 20 to 320 g/ha, which were obtained by the trial procedure specified above.

VIOTR = experiment: as above; format: in vivo, Viola tricolor
In short: (§2)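 Greenhouse pot test: weeds and crops sown in sandy loam, sprayed post-emergence at one-leaf stage (2–3 weeks after sowing) with WP or EC formulations plus 0.5% additive at 600 l/ha water, rates 20–320 g/ha. Visual rating about 3 weeks later versus untreated controls (100% = dead, 0% = as control).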

AVEFA = experiment: as above; format: in vivo, Avena fatua; settings: visual rating about 3 weeks after treatment
In short: as §2

ABUTH = experiment: as above; format: in vivo, Abutilon theophrasti; settings: visual rating about 3 weeks after treatment
In short: as §2

SETVI = experiment: as above; format: in vivo, Setaria viridis; settings: 320 g/ha
In short: as §2

MATIN = experiment: as above; format: in vivo, Tripleurospermum inodorum
In short: as §2

LOLRI = experiment: as above; format: in vivo, Lolium rigidum
From the text: (§3) • ALOMY: Alopecurus myosuroides SETVI: Setaria viridis • AVEFA: Avena fatua POLCO: Fallopia convolvulus • AMARE: Amaranthus retroflexus ECHCG: Echinochloa crus-galli • LOLRJ: Lolium rigidum STEME: Stellaria media • VERPE: Veronica persica MATIN: Tripleurospermum inodorum • DIGSA: Digitaria sanguinalis ABUTH: Abutylon threophrasti • TRZAS: Triticum aestivum VIOTR: Viola tricolor • BRSNW: Brassica napus ZEAMX: Zea mays • PHBPU: Ipomoea purpurea GLXMA: Glycine max • ORYSA: Oryza sativa HORMU: Hordeum murinum
as §1, with “plants.” for “plants. Tables 20a to 38c below show the effects/crop compatibilities of selected compounds of the general formula (I) on various harmful plants at an application rate corresponding to 20 to 320 g/ha, which were obtained by the trial procedure specified above.”
(§4) Tables 20a to 38c below show the effects/crop compatibilities of selected compounds of the general formula (I) on various harmful plants at an application rate corresponding to 20 to 320 g/ha, which were obtained by the trial procedure specified above.

DIGSA = experiment: as above; format: in vivo, Digitaria sanguinalis; settings: 320 g/ha, visual rating about 3 weeks after treatment
In short: as §2

VERPE = experiment: as above; format: in vivo, Veronica persica; settings: 320 g/ha
In short: as §2

PHBPU = experiment: as above; format: in vivo, Ipomoea purpurea
In short: as §2

POLCO = experiment: as above; format: in vivo, Fallopia convolvulus
In short: as §2

ECHCG = experiment: as above; format: in vivo, Echinochloa crus-galli
In short: as §2

ALOMY = experiment: as above; format: in vivo, Alopecurus myosuroides; settings: 320 g/ha, visual rating about 3 weeks after treatment
In short: as §2

ZEAMX = experiment: Post-emergence herbicidal effect and crop plant compatibility, greenhouse pot test; format: in vivo, Zea mays; settings: one-leaf stage, rated visually after about 3 weeks vs untreated controls
From the text: as §3
as §1, with “plants.” for “plants. Tables 20a to 38c below show the effects/crop compatibilities of selected compounds of the general formula (I) on various harmful plants at an application rate corresponding to 20 to 320 g/ha, which were obtained by the trial procedure specified above.”
as §4

COC(=O)CCOC(=O)C(OC)Oc1nn(-c2ncccc2F)c(-c2cncc(F)c2)c1C1CC1 (single isomer, unassigned) [Example I-77]
0%: Post-emergence effect at 20 g/ha against ZEAMX in % (ZEAMX; 20 g/ha) | Post-emergence effect at 80 g/ha against ZEAMX in % (ZEAMX; 80 g/ha)
90%: Post-emergence effect against KCHSC in % (KCHSC; 80 g/ha) | Post-emergence effect against KCHSC in % (KCHSC; 320 g/ha) | Post-emergence effect against VIOTR in % (VIOTR; 80 g/ha) | Post-emergence effect against VIOTR in % (VIOTR; 320 g/ha) | Post-emergence effect against AVEFA (AVEFA; 80 g/ha) | Post-emergence effect against AVEFA (AVEFA; 320 g/ha) | Post-emergence effect against SETVI in % (SETVI) | Post-emergence effect against LOLRI in % (LOLRI; 80 g/ha) | Post-emergence effect against LOLRI in % (LOLRI; 320 g/ha) | Post-emergence effect against DIGSA (DIGSA) | Post-emergence effect against VERPE in % (VERPE) | Post-emergence effect against PHBPU in % (PHBPU; 80 g/ha) | Post-emergence effect against PHBPU in % (PHBPU; 320 g/ha) | Post-emergence effect against POLCO in % (POLCO; 80 g/ha) | Post-emergence effect against POLCO in % (POLCO; 320 g/ha) | Post-emergence effect against ECHCG in % (ECHCG; 80 g/ha) | Post-emergence effect against ECHCG in % (ECHCG; 320 g/ha) | Post-emergence effect against ALOMY (ALOMY)
80%: Post-emergence effect against KCHSC in % (KCHSC; 20 g/ha) | Post-emergence effect against ABUTH (ABUTH; 80 g/ha) | Post-emergence effect against ABUTH (ABUTH; 320 g/ha) | Post-emergence effect against MATIN in % (MATIN; 80 g/ha) | Post-emergence effect against MATIN in % (MATIN; 320 g/ha)

CCOC(=O)C(OC)Oc1nn(-c2ncccc2F)c(-c2ccc(F)nc2)c1C1CC1 (stereo not drawn) [Example I-58]
10%: plant injury at 80 g/ha (ZEAMX; Zea mays, 504 h, 80 g/ha, read-out: Post-emergence effect at 80 g/ha against ZEAMX in %)
90%: pest or weed control at 80 g/ha (KCHSC; 504 h, 80 g/ha, read-out: Post-emergence effect against KCHSC in %) | pest or weed control at 320 g/ha (KCHSC; 504 h, 320 g/ha, read-out: Post-emergence effect against KCHSC in %) | pest or weed control at 320 g/ha (AVEFA; Avena fatua, 504 h, 320 g/ha, read-out: Post-emergence effect against AVEFA) | pest or weed control at 320 g/ha (SETVI; Setaria viridis, 504 h, read-out: Post-emergence effect against SETVI in %) | pest or weed control at 80 g/ha (LOLRI; Lolium rigidum, 504 h, 80 g/ha, read-out: Post-emergence effect against LOLRI in %) | pest or weed control at 320 g/ha (LOLRI; Lolium rigidum, 504 h, 320 g/ha, read-out: Post-emergence effect against LOLRI in %) | pest or weed control at 320 g/ha (PHBPU; Ipomoea purpurea, 504 h, 320 g/ha, read-out: Post-emergence effect against PHBPU in %) | pest or weed control at 80 g/ha (ECHCG; Echinochloa crus-galli, 504 h, 80 g/ha, read-out: Post-emergence effect against ECHCG in %) | pest or weed control at 320 g/ha (ECHCG; Echinochloa crus-galli, 504 h, 320 g/ha, read-out: Post-emergence effect against ECHCG in %) | pest or weed control at 320 g/ha (ALOMY; Alopecurus myosuroides, 504 h, read-out: Post-emergence effect against ALOMY)
0%: plant injury at 20 g/ha (ZEAMX; Zea mays, 504 h, 20 g/ha, read-out: Post-emergence effect at 20 g/ha against ZEAMX in %)
80%: pest or weed control at 80 g/ha (VIOTR; Viola tricolor, 504 h, 80 g/ha, read-out: Post-emergence effect against VIOTR in %) | pest or weed control at 320 g/ha (VIOTR; Viola tricolor, 504 h, 320 g/ha, read-out: Post-emergence effect against VIOTR in %) | pest or weed control at 20 g/ha (AVEFA; Avena fatua, 504 h, 20 g/ha, read-out: Post-emergence effect against AVEFA) | pest or weed control at 80 g/ha (AVEFA; Avena fatua, 504 h, 80 g/ha, read-out: Post-emergence effect against AVEFA) | pest or weed control at 80 g/ha (ABUTH; Abutilon theophrasti, 504 h, 80 g/ha, read-out: Post-emergence effect against ABUTH) | pest or weed control at 320 g/ha (ABUTH; Abutilon theophrasti, 504 h, 320 g/ha, read-out: Post-emergence effect against ABUTH) | pest or weed control at 320 g/ha (DIGSA; Digitaria sanguinalis, 504 h, read-out: Post-emergence effect against DIGSA) | pest or weed control at 320 g/ha (VERPE; Veronica persica, 504 h, read-out: Post-emergence effect against VERPE in %) | pest or weed control at 80 g/ha (PHBPU; Ipomoea purpurea, 504 h, 80 g/ha, read-out: Post-emergence effect against PHBPU in %) | pest or weed control at 80 g/ha (POLCO; Fallopia convolvulus, 504 h, 80 g/ha, read-out: Post-emergence effect against POLCO in %) | pest or weed control at 320 g/ha (POLCO; Fallopia convolvulus, 504 h, 320 g/ha, read-out: Post-emergence effect against POLCO in %)
